Experimental data: patent US11597951B2 (Lygos, Inc., priority 2018, dated 2023)
Numbering of substitutions follows the chain as printed. Names may count otherwise.

Tests used:
[1] = tested on: E. coli strain K12; assay: In vivo production of malonate in E. coli using S. cerevisiae EHD3 malonyl-CoA hydrolases; type: cell-based; conditions: for Malonate Concentration: E. coli K12, M9 minimal medium, 30° C., 48 hours, mean±std dev, n=3; for malonate production relative to wild-type EHD3: E. coli K12, 48 hours
Experimental: This example describes the host cells and culture conditions resulting in the in vivo production of malonate using a heterologous EHD3 malonyl-CoA hydrolase in an E. coli host cell. E. coli strain K12 was transformed with vectors containing wild-type EHD3, EHD3 (E124A), […], EHD3 (E124S), EHD3 (E124A, E308V) or an empty vector negative control. Transformants were streaked on LB agar plates (Cm^50, 2% glucose). Following overnight growth at 37° C., individual colonies were inoculated into 3 ml LB (Cm^50, 2% glucose) in a 48-well plate. Cultures were incubated on a plate shaker at 37° C. for 6 hours, at which point each culture was inoculated 1% v/v into M9 minimal medium supplemented with Cm^50 and a mixed carbon source (0.5% glycerol, 0.05% glucose, 0.2% lactose) in a 48-well plate. Cultures were incubated on a plate shaker at 30° C., and a 500 μL sample of the fermentation broth was removed for analysis after 48 hours incubation.
Samples were centrifuged (×6000 g, 1 min) and the supernatant analyzed for malonate quantification. Chemical standards were prepared in […] of water. The separation of malonate was conducted on a Shimadzu Prominence XR UPLC connected to a refractive index detector and UV detector monitoring 210 nm. Product separation was performed on a Bio-Rad Fermentation Monitoring column. The UPLC was programmed to run isocratically using 5 mM H2504 as the eluant with a flow rate of 600 μL per minute. 10 μL were injected per sample, and the sample plate temperature was held at 4° C. Malonate standards began eluting at […]. […] Malonate concentrations (mg/1) were calculated by comparison to a standard curve prepared from authentic malonate.

[2] = tested on: MdcY-PMdcL based biosensor; assay: MdcY malonate transcription factor biosensor using exogenously added malonate; type: cell-based, E. coli
Description: S14 employs the malonate responsive transcription factor, MdcY (SEQ ID NO:3), and the MdcY-responsive promoter, PMdcL (SEQ ID NO:6) derived from Acinetobacter calcoaceticus. This biosensor of this disclosure was constructed using an E. coli vector backbone with ampicillin resistance marker and ColE1 origin of replication; the tetA tetracycline resistance gene was placed under control of the PMdcL promoter.
Nucleic acids encoding for MdcY and TetA gene products, PMdcL promoter, and the E. coli vector backbone were synthetically produced; the biosensor vectors were than constructed by PCR amplification of the nucleic acids and subsequent cloning into the E. coli vector backbone. The plasmids were transformed into chemically competent E. coli DH10b and the resulting clones plated on LB agar plates containing 50 μg/ml carbenicillin (Cb^50). Individual colonies were grown overnight in 3 ml LB medium supplemented with antibiotic and the sequences of the purified plasmid were verified.
E. coli strain K12 was co-transformed with plasmids S14 and individual colonies isolated from LB agar plates (Cb^50). Colonies were grown in 25 ml LB broth (Cb^50) until reaching an optical density at 600 nm (OD600) of approximately 0.50, at which point in time cell stocks were prepared and stored at −80° C.; cell stocks were 0.5 ml cell culture and 0.5 ml of a 50% v/v glycerol solution.
An aliquot of biosensor cell stock was thawed and used to inoculate 50 ml of LB medium (Cb^50) in a 250 ml, baffled Erlenmeyer flask. Cultures were incubated for 2 hours at 37° C.; subsequently, 0.6 ml biosensor culture was added to 48-well plates prepared with 2.3 ml LB medium)(Cb^50) supplemented with tetracycline and malonate acid at the desired concentration (n=4). Plates were than grown at 30° C. on an orbital titer plate shaker. Following 12 hours incubation, 200 μl samples were taken for OD600 measurement.

[3] = Malonic acid solubility in water; type: physicochemical
[4] = tested on: S. cerevisiae; assay: Production of malonate in yeast expressing engineered FabD malonyl CoA:ACP transacylase; type: cell-based
Description: In this example, FabD from E. coli, a malonyl CoA:ACP transacylase (EC 2.3.1.39) having one or more of the following amino acid changes at the indicated positions: C92, H201, N201, D117, E117, N117, Y117, G117, H117, Q11, D11, Ell, N11, Y11, G11, H11, A93, V93, I93, F93, S93, G93 was employed as a malonyl-CoA hydrolase. The nucleic acid encoding E. coli FabD was PCR amplified from E. coli strain K12 using primer F1 (5′-[…]-3′) (SEQ ID NO: 43) and F2 (5′-[…]-3′) (SEQ ID NO: 44). The amplified gene was then mutated using standard methods and inserted into a shuttle expression plasmid under the control of the TEF1 promoter and upstream of the CYC1 terminator. This vector contains an ampicillin resistance cassette, a PMB1 origin of replication, a CEN/ARS origin of replication, and a URA3 selection marker. The individual mutational combinations assayed are listed with the results below.
Individual colonies were inoculated into 1 ml of yeast fermentation media comprising 5 g/L ammonium sulfate, 1 g/L monopotassium phosphate, 0.5 g/L magnesium sulfate, 0.1 g/L sodium chloride, 0.1 g/L calcium chloride, 2 mg/L inositol, 0.5 mg/L boric acid, 0.4 mg/L calcium pentothenate, 0.4 mg/L niacin, 0.4 mg/L pyridoxine hydrochloride, 0.4 mg/L thiamine HCl, 0.4 mg/L zinc sulfate, 0.4 mg/L manganese sulfate, 0.2 mg/L p-aminobenzoic acid, 0.2 mg/L riboflavin, 0.2 mg/L sodium molybdate, 0.2 mg/L ferric chloride, 0.1 mg/L potassium iodide, 40 μg/L copper sulfate, 2 μg/L folic acid, 2 μg/L biotin, 10 mg/L adenine, 50 mg/L L-arginine HCl, 80 mg/L L-aspartic acid, 20 mg/L L-histidine HCl, 50 mg/L L-isoleucine, 100 mg/L L-leucine, 50 mg/L L-lysine HCl, 20 mg/L methionine, 50 mg/L L-phenylalanine, 100 mg/L L-threonine, 50 mg/L L-tryptophan, 50 mg/L L-tyrosine, and 140 mg/L L-valine (the base media) containing 2% glucose as a carbon source. The cultures were incubated on a shaker at 30° C. for 24 h, and 20 μl of these cultures were used to inoculate production cultures of 2 ml of the same media. The production cultures were covered with a breathable membrane, incubated with shaking at 30° C. and sampled for HPLC analysis of product accumulation after 96 h and 168 h of growth.

[5] = plasmid S14, tetracycline, 12 hours, 30° C.

Molecule: Wild-type EHD3: wild type S. cerevisiae EHD3 acyl-CoA hydrolase, SEQ ID NO:1
- Malonate Concentration [1]: 6.0 ± 0.2 mg/L

Molecule: O=C(O)CC(=O)O [malonic acid, propanedioic acid]
- biosensor response ([2]; cultures harboring S14): dose-dependent response
- dynamic range (maximum difference in OD600 between fully induced samples and samples absent malonate) [2, 5]: 1.2 OD600 units
- exogenously added malonate concentration over which an increase in OD600 was observed [2, 5]: 0.5 to 1 mM
- Malonic acid solubility in water ([3]; 5 ° C.): 53.92 % (w/w)
- Malonic acid solubility in water ([3]; 10 ° C.): 55.75 % (w/w)
- Malonic acid solubility in water ([3]; 15 ° C.): 57.63 % (w/w)
- Malonic acid solubility in water ([3]; 20 ° C.): 59.68 % (w/w)
- Malonic acid solubility in water ([3]; 25 ° C.): 61.69 % (w/w)
- Malonic acid solubility in water ([3]; 30 ° C.): 63.5 % (w/w)
- Malonic acid solubility in water ([3]; 35 ° C.): 65.28 % (w/w)
- Malonic acid solubility in water ([3]; 40 ° C.): 67.43 % (w/w)
- Malonic acid solubility in water ([3]; 45 ° C.): 68.85 % (w/w)
- Malonic acid solubility in water ([3]; 50 ° C.): 70.33 % (w/w)
- Malonic acid solubility in water ([3]; 55 ° C.): 72.38 % (w/w)
- Malonic acid solubility in water ([3]; 60 ° C.): 74.29 % (w/w)
- Malonic acid solubility in water ([3]; 65° C.): 75.96 % (w/w)
- solubility limit ([3]; 65° C.): 76 % wt/wt

B1: EHD3 (E124V): S. cerevisiae EHD3 with point mutation E124V, malonyl-CoA hydrolase (protein, UniProt P28817 1-500, looked up, variant E124V)
Small ribosomal subunit …: MLRNTLKCAQLSSKYGFKTTTRTFMTTQPQLNVTDAPPVLFTVQDTARVITLNRPKKLNALNAEMSESMFKTLNEYAKSDTTNLVILKSSNRPRSFCAGGDVATVAIFNFNKEFAKSIKFFTDVYSLNFQIATYLKPIVTFMDGITMGGGVGLSIHTPFRIATENTKWAMPEMDIGFFPDVGSTFALPRIVTLANSNSQMALYLCLTGEVVTGADAYMLGLASHYVSSENLDALQKRLGEISPPFNNDPQSAYFFGMVNESIDEFVSPLPKDYVFKYSNEKLNVIEACFNLSKNGTIEDIMNNLRQYEGSAEGKAFAQEIKTKLLTKSPSSLQIALRLVQENSRDHIESAIKRDLYTAANMCMNQDSLVEFSEATKHKLIDKQRVPYPWTKKEQLFVSQLTSITSPKPSLPMSLLRNTSNVTWTQYPYHSKYQLPTEQEIAAYIEKRTNDDTGAKVTEREVLNHFANVIPSRRGKLGIQSLCKIVCERKCEEVNDGLRWK
- malonate production relative to wild-type EHD3 [1]: decreased production of malonate
- Malonate Concentration [1]: 0.28 ± 0.03 mg/L

B2: EHD3 (E124A): S. cerevisiae EHD3 with point mutation E124A, malonyl-CoA hydrolase (protein, UniProt P28817 1-500, looked up, variant E124A)
Small ribosomal subunit …: B1 Small ribosomal subunit … with V124A
- malonate production relative to wild-type EHD3 [1]: only a minor increase
- Malonate Concentration [1]: 7.6 ± 0.7 mg/L

B3: EHD3 (E124A/E308V): S. cerevisiae EHD3 with mutations E124A and E308V, malonyl-CoA hydrolase (protein, UniProt P28817 1-500, looked up, variant E124A E308V)
Small ribosomal subunit …: B1 Small ribosomal subunit … with V124A, E308V
- Malonate Concentration [1]: 8.35 ± 2.5 mg/L

B4: FabD S92C/L93V/R117H: engineered E. coli FabD malonyl CoA:ACP transacylase with S92C/L93V/R117H (protein, UniProt P0AAI9 2-309, looked up, variant S92C L93V R117H)
Malonyl CoA-acyl carrier …: TQFAFVFPGQGSQTVGMLADMAASYPIVEETFAEASAALGYDLWALTQQGPAEELNKTWQTQPALLTASVALYRVWQQQGGKAPAMMAGHCVGEYSALVCAGVIDFADAVRLVEMHGKFMQEAVPEGTGAMAAIIGLDDASIAKACEEAAEGQVVSPVNFNSPGQVVIAGHKEAVERAGAACKAAGAKRALPLPVSVPSHCALMKPAADKLAVELAKITFNAPTVPVVNNVDVKCETNGDAIRDALVRQLYNPVQWTKSVEYMAAQGVEHLYEVGPGKVLTGLTKRIVDTLTASALNEPSAMAAALEL
- Malonate accumulation ([4]; 96 h of fermentation): 1.01 mM
- Malonate accumulation ([4]; 168 h of fermentation): 2.49 mM

B5: FabD L931/R117Y: engineered E. coli FabD malonyl CoA:ACP transacylase variant, printed L931/R117Y (protein, UniProt P0AAI9 2-309, looked up, variant L93I R117Y)
Malonyl CoA-acyl carrier …: B4 Malonyl CoA-acyl carrier … with C91S, V92I, H116Y
- Malonate accumulation ([4]; 96 h of fermentation): 1.47 mM
- Malonate accumulation ([4]; 168 h of fermentation): 2.48 mM

B6: FabD L93S/R117G: engineered E. coli FabD malonyl CoA:ACP transacylase with L93S/R117G (protein, UniProt P0AAI9 2-309, looked up, variant L93S R117G)
Malonyl CoA-acyl carrier …: B4 Malonyl CoA-acyl carrier … with C91S, V92S, H116G
- Malonate accumulation ([4]; 96 h of fermentation): 1.11 mM
- Malonate accumulation ([4]; 168 h of fermentation): 2.89 mM

B7: FabD L93I/R117Y: engineered E. coli FabD malonyl CoA:ACP transacylase with L93I/R117Y (protein, UniProt P0AAI9 2-309, looked up, variant L93I R117Y)
Malonyl CoA-acyl carrier …: B4 Malonyl CoA-acyl carrier … with C91S, V92I, H116Y
- Malonate accumulation ([4]; 96 h of fermentation): 1.64 mM
- Malonate accumulation ([4]; 168 h of fermentation): 3.47 mM
